Results reported in patent publication US6727264B1 (Synaptic Pharmaceutical Corporation, priority 2001, dated 2004).

These molecules were tested against rat MCH-1 (Rattus norvegicus, UniProt P97639) (assay: Radioligand binding assay at cloned rat MCH1 receptor ([3H] Compound A)). Conditions: cloned rat MCH1 receptor, membranes from Peakr293 cells, 0.08 nM [3H] Compound A; read-out: Ki (nM) rMCH1.
Set-up: host or cells: Peak rapid 293 (Peakr293) cells, transient calcium phosphate transfection, membranes

Sequence of rat MCH-1 (P97639 whole entry): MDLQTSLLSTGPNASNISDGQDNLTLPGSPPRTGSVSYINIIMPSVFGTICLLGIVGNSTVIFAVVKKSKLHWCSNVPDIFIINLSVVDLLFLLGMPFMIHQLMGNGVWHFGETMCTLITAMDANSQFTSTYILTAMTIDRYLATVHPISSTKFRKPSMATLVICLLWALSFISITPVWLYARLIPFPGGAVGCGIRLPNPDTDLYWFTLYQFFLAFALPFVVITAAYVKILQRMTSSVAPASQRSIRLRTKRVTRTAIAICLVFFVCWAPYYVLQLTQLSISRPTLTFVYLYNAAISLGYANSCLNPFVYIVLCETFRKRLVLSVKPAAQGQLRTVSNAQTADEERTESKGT

Row | SMILES | Ki
1 | CC(C)C(=O)Nc1cccc(C2CCN(CCC(Oc3c(F)c(F)c(F)c(F)c3F)c3ccc(F)cc3)CC2)c1 (stereo not drawn) [Example 132] | 41.7 nM
2 | Cc1ccccc1OC(CCN1CCC(c2cccc(NC(=O)C(C)C)c2)CC1)c1ccc(Br)cc1 (stereo not drawn) [Example 133] | 14.1 nM
3 | CC(C)C(=O)Nc1cccc(C2CCN(CCC(Oc3ccc(F)c(F)c3)c3ccc(F)cc3)CC2)c1 (stereo not drawn) [Example 134] | 36.6 nM
4 | CC(C)C(=O)Nc1cccc(C2CCN(CCC(Oc3ccc(Br)cc3)c3ccc(F)cc3)CC2)c1 (stereo not drawn) [Example 135] | 10.9 nM
5 | CC(C)C(=O)Nc1cccc(C2CCN(CCC(Oc3ccc(Cl)c(Cl)c3)c3ccc(F)cc3)CC2)c1 (stereo not drawn) [Example 136] | 15.9 nM
6 | CC(C)C(=O)Nc1cccc(C2CCN(CCC(Oc3ccc(C(F)(F)F)cc3)c3ccc(F)cc3)CC2)c1 (stereo not drawn) [Example 137] | 25.2 nM
7 | CC(C)C(=O)Nc1cccc(C2CCN(CCC(Oc3cccc(Br)c3)c3ccc(F)cc3)CC2)c1 (stereo not drawn) [Example 138] | 9.3 nM
8 | CC(C)C(=O)Nc1cccc(C2CCN(CCC(Oc3ccc(F)cc3)c3ccc(F)cc3)CC2)c1 (stereo not drawn) [Example 139] | 38.7 nM
9 | CC(C)C(=O)Nc1cccc(C2CCN(CCC(Oc3cccc(F)c3)c3ccc(F)cc3)CC2)c1 (stereo not drawn) [Example 140] | 27.4 nM
10 | CC(C)C(=O)Nc1cccc(C2CCN(CCC(Oc3c(Cl)cccc3Cl)c3ccc(F)cc3)CC2)c1 (stereo not drawn) [Example 141] | 61 nM
11 | CC(C)C(=O)Nc1cccc(C2CCN(CCC(Oc3cc(F)ccc3F)c3ccc(F)cc3)CC2)c1 (stereo not drawn) [Example 142] | 18.3 nM
12 | CC(C)C(=O)Nc1cccc(C2CCN(CCC(Oc3cccc(Cl)c3)c3ccc(F)cc3)CC2)c1 (stereo not drawn) [Example 143] | 8.7 nM
13 | Cc1cccc(OC(CCN2CCC(c3cccc(NC(=O)C(C)C)c3)CC2)c2ccc(Br)cc2)c1 (stereo not drawn) [Example 144] | 13.4 nM
14 | CC(C)C(=O)Nc1cccc(C2CCN(CCC(Oc3ccc(-c4ccccc4)cc3)c3ccc(Br)cc3)CC2)c1 (stereo not drawn) [Example 145] | 197 nM
15 | CC(C)C(=O)Nc1cccc(C2CCN(CCC(Oc3ccc(F)cc3F)c3ccc(F)cc3)CC2)c1 (stereo not drawn) [Example 146] | 19.2 nM
16 | COc1cccc(OC(CCN2CCC(c3cccc(NC(=O)C(C)C)c3)CC2)c2ccc(Br)cc2)c1 (stereo not drawn) [Example 147] | 8.7 nM
17 | COC(=O)c1ccc(OC(CCN2CCC(c3cccc(NC(=O)C(C)C)c3)CC2)c2ccc(Br)cc2)cc1 (stereo not drawn) [Example 148, METHYL 4-(1-(4-BROMOPHENYL)-3-{4-[3-(ISOBUTYRYLAMINO)PHENYL]-1-PIPERIDINYL}PROPOXY)BENZOATE] | 24.7 nM
18 | CC(C)C(=O)Nc1cccc(C2CCN(CCC(Oc3ccc(Oc4ccccc4)cc3)c3ccc(Br)cc3)CC2)c1 (stereo not drawn) [Example 149] | 149 nM
19 | Cc1ccc(OC(CCN2CCC(c3cccc(NC(=O)C(C)C)c3)CC2)c2ccc(Br)cc2)c(Cl)c1 (stereo not drawn) [Example 150] | 8 nM
20 | CC(C)C(=O)Nc1cccc(C2CCN(CCC(Oc3ccccc3)c3ccc(Br)cc3)CC2)c1 (stereo not drawn) [Example 151] | 14.2 nM
21 | CC(C)C(=O)Nc1cccc(C2CCN(CCC(Oc3ccc(C(F)(F)F)cc3)c3ccc(Br)cc3)CC2)c1 (stereo not drawn) [Example 152] | 13.3 nM
22 | CC(=O)c1ccccc1OC(CCN1CCC(c2cccc(NC(=O)C(C)C)c2)CC1)c1ccc(Br)cc1 (stereo not drawn) [Example 153] | 8.1 nM
23 | CC(=O)c1cccc(OC(CCN2CCC(c3cccc(NC(=O)C(C)C)c3)CC2)c2ccc(Br)cc2)c1 (stereo not drawn) [Example 154] | 9.3 nM

Row | SMILES | Ki
24 | CC(=O)c1cccc(OC(CCN2CCC(c3cccc(NC(=O)C(C)C)c3)CC2)c2ccc3c(c2)CCC3)c1 (stereo not drawn) [Example 155] | 7.4 nM
25 | CC(C)C(=O)Nc1cccc(C2CCN(CCC(Oc3ccccc3)c3ccc4c(c3)CCC4)CC2)c1 (stereo not drawn) [Example 156] | 8.8 nM
26 | CC(=O)c1ccccc1OC(CCN1CCC(c2cccc(NC(=O)C(C)C)c2)CC1)c1ccc2c(c1)CCC2 (stereo not drawn) [Example 157, N-(3-{1-[3-(2- ACETYLPHENOXY)-3-(2,3-DIHYDRO-1H-INDEN-5-YL)PROPYL]-4-PIPERIDINYL}PHENYL)-2-METHYLPROPANAMIDE] | 15.4 nM
27 | CC(C)C(=O)Nc1cccc(C2CCN(CCC(Oc3ccc(Br)cc3)c3ccc(Br)cc3)CC2)c1 (stereo not drawn) [Example 158] | 7.8 nM
28 | CC(C)C(=O)Nc1cccc(C2CCN(CCC(Oc3ccc(Cl)cc3)c3ccc(Br)cc3)CC2)c1 (stereo not drawn) [Example 159] | 4.5 nM
29 | CC(C)C(=O)Nc1cccc(C2CCN(CCC(Oc3ccc(F)cc3)c3ccc(Br)cc3)CC2)c1 (stereo not drawn) [Example 160] | 6.2 nM
30 | COc1ccc(OC(CCN2CCC(c3cccc(NC(=O)C(C)C)c3)CC2)c2ccc3c(c2)CCC3)cc1 (stereo not drawn) [Example 161] | 7.9 nM
31 | CC(C)C(=O)Nc1cccc(C2CCN(CCC(Oc3ccc(F)cc3)c3ccc4c(c3)CCC4)CC2)c1 (stereo not drawn) [Example 162] | 7.2 nM
32 | CC(C)C(=O)Nc1cccc(C2CCN(CCC(O)c3ccc4c(c3)CCC4)CC2)c1 (stereo not drawn) [Example 163] | 58.3 nM
33 | CC(C)C(=O)Nc1cccc(C2CCN(CCC(Oc3ccc(C(F)(F)F)cc3)c3ccc4c(c3)CCC4)CC2)c1 (stereo not drawn) [Example 164] | 16.3 nM
34 | CC(C)C(=O)Nc1cccc(C2CCN(CCC(Oc3ccc(Br)cc3)c3ccc4c(c3)CCC4)CC2)c1 (stereo not drawn) [Example 165, N-(3-{1-[3-(4- BROMOPHENOXY)-3-(2,3-DIHYDRO-1H-INDEN-5-YL)PROPYL]-4-PIPERIDINYL}PHENYL)-2-METHYLPROPANAMIDE] | 6.2 nM
35 | CC(=O)c1cccc(OC(CCN2CCC(c3cccc(NC(=O)C(C)C)c3)CC2)c2ccc(Cl)cc2)c1 (stereo not drawn) [Example 166] | 7.7 nM
36 | COc1ccc(OC(CCN2CCC(c3cccc(NC(=O)C(C)C)c3)CC2)c2ccc(OC)cc2)cc1 (stereo not drawn) [Example 167] | 80.4 nM
37 | CC(C)C(=O)Nc1cccc(C2CCN(CCC(Oc3ccc(Cl)cc3)c3ccc4c(c3)CCC4)CC2)c1 (stereo not drawn) [Example 168] | 7 nM
38 | CC(=O)c1ccccc1OC(CCN1CCC(c2cccc(NC(=O)C(C)C)c2)CC1)c1ccc(Cl)cc1 (stereo not drawn) [Example 169] | 7.7 nM
39 | COc1ccc(OC(CCN2CCC(c3cccc(NC(=O)C(C)C)c3)CC2)c2ccc(Br)cc2)cc1 (stereo not drawn) [Example 170] | 3 nM
40 | CC(C)C(=O)Nc1cccc(C2CCN(CCC(Oc3ccc(Br)cc3)c3ccc(Cl)cc3)CC2)c1 (stereo not drawn) [Example 171] | 3.7 nM
41 | CC(C)C(=O)Nc1cccc(C2CCN(CCC(Oc3ccc(Cl)cc3)c3ccc(Cl)cc3)CC2)c1 (stereo not drawn) [Example 172] | 3 nM
42 | COc1ccc(C(CCN2CCC(c3cccc(NC(=O)C(C)C)c3)CC2)Oc2ccccc2)cc1 (stereo not drawn) [Example 173, N-(3-{1-[3-(4- METHOXYPHENYL)-3-PHENOXYPROPYL]-4-PIPERIDINYL}PHENYL)-2-METHYLPROPANAMIDE] | 112 nM
43 | CC(C)C(=O)Nc1cccc(C2CCN(CCC(Oc3ccccc3)c3ccc(F)cc3)CC2)c1 (stereo not drawn) [Example 174] | 17 nM
44 | CC(=O)c1ccccc1OC(CCN1CCC(c2cccc(NC(=O)C(C)C)c2)CC1)c1ccc(F)cc1 (stereo not drawn) [Example 175] | 16.2 nM
45 | CC(=O)c1cccc(OC(CCN2CCC(c3cccc(NC(=O)C(C)C)c3)CC2)c2ccc(F)cc2)c1 (stereo not drawn) [Example 176] | 11.8 nM
46 | COc1ccc(OC(CCN2CCC(c3cccc(NC(=O)C(C)C)c3)CC2)c2ccc(F)cc2)cc1 (stereo not drawn) [Example 177] | 6.8 nM

Row | SMILES | Ki
47 | COc1ccc(C(CCN2CCC(c3cccc(NC(=O)C(C)C)c3)CC2)Oc2ccc(Cl)cc2)cc1 (stereo not drawn) [Example 178] | 119 nM
48 | COc1ccc(C(CCN2CCC(c3cccc(NC(=O)C(C)C)c3)CC2)Oc2cccc(C(C)=O)c2)cc1 (stereo not drawn) [Example 179] | 82.3 nM
49 | CC(C)C(=O)Nc1cccc(C2CCN(CCC(Oc3ccccc3)c3ccc(Cl)cc3)CC2)c1 (stereo not drawn) [Example 180] | 9.7 nM
50 | COc1ccc(C(CCN2CCC(c3cccc(NC(=O)C(C)C)c3)CC2)Oc2ccc(Br)cc2)cc1 (stereo not drawn) [Example 181] | 91.9 nM
51 | COc1ccc(C(CCN2CCC(c3cccc(NC(=O)C(C)C)c3)CC2)Oc2ccc(C(F)(F)F)cc2)cc1 (stereo not drawn) [Example 182] | 101 nM
52 | CC(C)C(=O)Nc1cccc(C2CCN(CCC(Oc3ccc(F)cc3)c3ccc(Cl)cc3)CC2)c1 (stereo not drawn) [Example 183] | 4 nM
53 | COc1ccc(C(CCN2CCC(c3cccc(NC(=O)C(C)C)c3)CC2)Oc2ccc(F)cc2)cc1 (stereo not drawn) [Example 184] | 105 nM
54 | COc1ccc(C(CCN2CCC(c3cccc(NC(=O)C(C)C)c3)CC2)Oc2ccccc2C(C)=O)cc1 (stereo not drawn) [Example 185] | 20.6 nM
55 | CC(C)C(=O)Nc1cccc(C2CCN(CCC(Oc3ccc(C(F)(F)F)cc3)c3ccc(Cl)cc3)CC2)c1 (stereo not drawn) [Example 186] | 4.9 nM
56 | CC(=O)c1cccc(O[C@@H](CCN2CCC(c3cc(NC(=O)C(C)C)ccc3C)CC2)c2ccccc2)c1 [Example 187] | 15.6 nM
57 | CC(C)CCOc1ccc2ccccc2c1CN1CCC(c2cccc(NC(=O)C(C)C)c2)CC1 [Example 188] | 531 nM
58 | CCCCOc1ccc2ccccc2c1CN1CCC(c2cccc(NC(=O)C(C)C)c2)CC1 [Example 189] | 438 nM
59 | CC(C)C(=O)Nc1cccc(C2CCN(Cc3c(OCc4ccc(C#N)cc4)ccc4ccccc34)CC2)c1 [Example 190] | 436 nM
60 | CC(C)C(=O)Nc1cccc(C2CCN(Cc3c(OCC#N)ccc4ccccc34)CC2)c1 [Example 191] | 649 nM
61 | CC(C)C(=O)Nc1cccc(C2CCN(Cc3c(OCc4cccc(Cl)c4)ccc4ccccc34)CC2)c1 [Example 192] | 80.5 nM
62 | CC(C)CCOc1ccc(CN2CCC(c3cccc(NC(=O)C(C)C)c3)CC2)c2ccccc12 [Example 195] | 106 nM
63 | COc1ccc(Oc2ccc(CN3CCC(c4cccc(NC(=O)C(C)C)c4)CC3)cc2)cc1 [Example 196] | 35.2 nM
64 | CCCOc1ccc(CN2CCC(c3cccc(NC(=O)C(C)C)c3)CC2)c2ccccc12 [Example 197] | 63.1 nM
65 | CC(C)C(=O)Nc1cccc(C2CCN(C(C)c3csc(-c4ccccc4)n3)CC2)c1 (stereo not drawn) [Example 201] | 996 nM
66 | Cc1nn(-c2ccccc2)c(Cl)c1CN1CCC(c2cccc(NC(=O)C(C)C)c2)CC1 [Example 202] | 155 nM
67 | CC(C)C(=O)Nc1cccc(C2CCN(Cc3c[nH]c(-c4ccccc4)n3)CC2)c1 [Example 203] | 79.6 nM
68 | CC(C)C(=O)Nc1cccc(C2CCN(Cc3c(Br)cnn3Cc3ccc(Cl)cc3)CC2)c1 [Example 204] | 39.8 nM
69 | CC(C)C(=O)Nc1cccc(C2CCN(Cc3cccc(Oc4ccccc4)c3)CC2)c1 [Example 205] | 28 nM
